Entries after “also recorded” stand apart in the source; their conditions may differ.
System: C57BL/6 WT mice treated with tunicamycin
Test: Tunicamycin-induced hepatic and renal damage in WT mice in the presence and absence of PPG
Assay type: in vivo, mouse
Description: In order to investigate the effects of elevated cystathionine upon the response to ER stress, wild type mice (n=6) were exposed to a single sub-lethal intraperitoneal injection of tunicamycin in the presence and absence of the CGL inactivating compound PPG. WT mice were randomly assigned to one of four treatment groups (n=6 for each group): 1) control, IP injected with PBS; 2) I.P. injection with PPG; 3) single I.P […] tunicamycin and 4) tunicamycin+PPG. In groups 2 and 4, PPG treatment was maintained by daily injection until sacrifice at three days post vehicle/tunicamycin injection. After the completion of this treatment regime, all mice were anaesthetized (isoflourane/oxygen) and sacrificed by decapitation, and blood samples were collected for plasma analysis. Livers and kidneys were removed, weighed and then samples were either immersion-fixed overnight in 4% paraformaldehyde in PBS (pH 7.3) for subsequent histological analysis or were snap frozen in liquid nitrogen and examined for morphological, histological and biochemical analyses.
Propensity for hepatic steatosis was examined in HO and wild type control mice using a methionine-choline deficient amino acid defined and iron supplemented diet (#518810 Dyets Inc., Bethlehem, Pa.)) and an isocaloric amino acid defined Lombardi choline sufficient diet with methionine control diet (518754, Dyets Inc., Bethlehem, Pa.) for 19 days as described previously (7). Experimental hypercystathionemia was induced by IP injection of the CGL inactivator PPG (50 mg·day-1·kg-1) as described previously (8). ER stress was induced in mice by a single IP injection with tunicamycin at 0.5 mg/kg body weight (volume <=1.0 ml). Control mice were sham treated by injection with an equal volume of PBS (9,10).
Tissues were immersion-fixed overnight in 4% paraformaldehyde in PBS (pH 7.3). Paraffin embedded sections (5 μm) were stained for examination with hematoxylin and eosin (H and E). Cells undergoing apoptosis were identified by labeling their DNA 3′-OH nick ends using a variant of terminal deoxynucleotidyl transferase-mediated dUTP nick end-labeling (TUNEL) staining. Staining was performed according to the manufacturer's instruction with ApopTag® Peroxidase in Situ Apoptosis Detection Kit (Millipore, Billerica, Mass.). Tissue sections were deparaffinized with xylene and washed in succession with different concentrations of ethanol (absolute, 95% and 70%). Tissue sections were then digested with proteinase K (20 μg/ml) for 15 min. Endogenous peroxidase activity was quenched with 3% H2O2 in PBS for 5 min. The slides were immersed in terminal deoxynucleotidyl transferase (TdT) buffer containing digoxigenin-labeled nucleotides at 37° C. for 1 h. After washing, anti-digoxigenin-peroxidase was added to cover the slides and incubated in a humid chamber at room temperature for 30 min. After washing with PBS, the slides were stained with diaminobenzidine and then counterstained with 1% methyl green. Light microscopy was performed to quantify the apoptotic cells, by counting cells in ten randomly selected fields (×100 magnification) of each slide with the following formula: number of apoptotic cells/total number of cells counted×100.
A party unaware of the animal's genotype or treatment group performed both histological analysis, of stained slides and TUNEL staining. Liver injury was assessed by determining plasma levels of alanine aminotransferase (ALT) activity using an enzyme-coupled assay with lactic dehydrogenase (LDH) as described previously (12) Liver lipid was extracted using the procedure of Bligh and Dyer (13) and after evaporation of the organic solvent, the triacylglycerol content of each sample was measured in duplicate using an enzymatic method (Sigma-Aldrich).

[1] = tunicamycin 0.5 mg/kg single IP + daily PPG, three days

C#CCC(N)C(=O)O (racemic) [PPG, D,L-2-amino-4-pentynoic acid]
apoptosis (Tunel staining) (PPG alone control group): No apoptosis was observed | morphological alteration (histology) (PPG alone control group): no significant morphological alteration | size and appearance of livers and kidneys (PPG alone control group): normal in size and appearance | liver weight vs control groups [1]: did not differ significantly from the control groups | plasma ALT levels vs control groups [1]: did not differ significantly from the control groups | triglyceride levels vs control groups [1]: did not differ significantly from the control groups | gross appearance of livers and kidneys (tunicamycin + PPG, three days): appeared ostensibly normal; also recorded: this effect was not apparent | tunicamycin-induced morphological changes in liver and kidney (H and E histology) (tunicamycin + PPG, three days): effectively ablated; also recorded: significantly attenuated | apoptotic cells in kidney (Tunel staining) (tunicamycin treated mice pretreated with PPG): No apoptotic cells were observed
